Experimental data from US11414450B1, “Aminoglycosides and uses thereof” (REVAGENIX, INC., priority 2017, dated 2022).
Converted amounts (≈) assume the structure as drawn.

Key:
[1] = tested on: E. coli isogenic strain nmpA; assay: MIC broth microdilution, E. coli isogenic strain nmpA; assay type: cell-based; conditions: for MIC: Escherichia coli, read-out: Geometric Mean MIC values, E. coli isogenic strains npmA; for Geometric Mean MIC values, E. coli isogenic strains, nmpA: Table 2
Experimental: (§1) Minimum inhibitory concentrations for the example compounds herein are determined by the broth microdilution method in accordance with the Clinical and Laboratory Standards Institute (CLSI) guidelines. In brief, organism suspensions are adjusted to a 0.5 McFarland standard to yield a final inoculum between 3×10^5 and 7×10^5 colony-forming units (CFU)/mL. Compound dilutions and inocula are made in sterile, cation adjusted Mueller-Hinton Broth (Beckton Dickinson). The inoculum is prepared by suspension of a colony from an agar plate that is prepared the previous day. Bacteria are suspended in sterile saline and added to each assay plate to obtain a final concentration of 5×10^5 CFU/mL. An inoculum volume of 100 μL is added to wells containing 100 μL of broth with 2-fold serial dilutions of the compound. All inoculated microdilution trays are incubated in ambient air at 35° C. for 18-24 hours. Following incubation, the lowest concentration of the compound that prevents visible growth (OD 600 nm<0.05) is recorded as the MIC. […] Performance of the assay is monitored by the use of laboratory quality-control strains and a compound with a defined MIC spectrum (such as levofloxacin), in accordance with CLSI guidelines. Compounds are tested against multiple microbiologic panels. Panels include: 1) a multi-species primary screening panel that includes multiple defined AG-R mechanisms; 2) a panel of isogenic strains carrying different common mechanisms of AG-R that allows characterization of the SAR for AMEs, RMTs, and entry and efflux resistance mechanisms; and 3) panels of recent clinical isolates selected from Phase 3 studies and ongoing global surveillance.

[2] = tested on: E. coli isogenic strain aac(6′)-Ib; assay: MIC broth microdilution, E. coli isogenic strain aac(6′)-Ib; assay type: cell-based; conditions: for MIC: Escherichia coli, read-out: Geometric Mean MIC values, E. coli isogenic strains aac(6′)-Ib; for Geometric Mean MIC values, E. coli isogenic strains, aac(6′)-Ib: Table 2
Experimental: as §1

[3] = tested on: E. coli isogenic strain aph(3′)-Ia; assay: MIC broth microdilution, E. coli isogenic strain aph(3′)-Ia; assay type: cell-based; conditions: for MIC: Escherichia coli, read-out: Geometric Mean MIC values, E. coli isogenic strains aph(3′)-Ia; for Geometric Mean MIC values, E. coli isogenic strains, aph(3′)-Ia: Table 2, aph(3′)-Ia has activity at both the 3′-hydroxy and 5″-hydroxy positions
Experimental: as §1

E. coli efflux parent = assay: MIC broth microdilution, E. coli efflux parent strain; assay type: cell-based; conditions: for MIC: Escherichia coli, E. coli efflux parent strain, read-out: Geometric Mean MIC values, E. coli efflux parent
Experimental: as §1

[4] = tested on: E. coli isogenic strain ant(4′)-Ia; assay: MIC broth microdilution, E. coli isogenic strain ant(4′)-Ia; assay type: cell-based; conditions: for Geometric Mean MIC values, E. coli isogenic strains, ant(4′)-Ia: Table 2
Experimental: as §1

[5] = tested on: E. coli isogenic strain armA; assay: MIC broth microdilution, E. coli isogenic strain armA; assay type: cell-based; conditions: for MIC: Escherichia coli, read-out: Geometric Mean MIC values, E. coli isogenic strains armA; for Geometric Mean MIC values, E. coli isogenic strains, armA: Table 2
Experimental: as §1

E. coli ATCC 25922 = assay: Minimum inhibitory concentration (broth microdilution, CLSI), E. coli ATCC 25922; assay type: cell-based; conditions: for MIC: Escherichia coli, ATCC25922, E. coli ATCC 25922, broth microdilution, read-out: Geometric Mean MIC values, E. coli ATCC 25922
Experimental: as §1

[6] = tested on: E. coli Δefflux (tolC efflux pump knocked-out); assay: MIC broth microdilution, E. coli Δefflux strain (tolC knocked out); assay type: cell-based
Experimental: as §1

[7] = tested on: E. coli isogenic strain aph(3′)-II; assay: MIC broth microdilution, E. coli isogenic strain aph(3′)-II; assay type: cell-based; conditions: for MIC: Escherichia coli, read-out: Geometric Mean MIC values, E. coli isogenic strains aph(3′)-II; for Geometric Mean MIC values, E. coli isogenic strains, aph(3′)-II: Table 2
Experimental: as §1

[8] = tested on: E. coli isogenic strain empty vector; assay: MIC broth microdilution, E. coli isogenic strain, empty vector; assay type: cell-based; conditions: for MIC: Escherichia coli, read-out: Geometric Mean MIC values, E. coli isogenic strains empty vector; for Geometric Mean MIC values, E. coli isogenic strains, empty vector: Table 2
Experimental: as §1

translation = assay: Translation Inhibition Assay; assay type: biochemical; conditions: Table 1
Text: Biological Example 2: Translation Inhibition Assay

[9] = tested on: P. aeruginosa Δefflux (MexAB-OprM, MexCD-OprJ, MexEF-OprN knocked out); assay: MIC broth microdilution, P. aeruginosa Δefflux strain; assay type: cell-based; conditions: Table 1, MexEF-OprN efflux pumps knocked out
Experimental: as §1

P. aeruginosa ATCC 27853 = assay: MIC broth microdilution, P. aeruginosa ATCC 27853; assay type: cell-based; conditions: Table 1; geometric mean
Experimental: as §1

[10] = tested on: P. aeruginosa efflux parent; assay: MIC broth microdilution, P. aeruginosa efflux parent strain; assay type: cell-based; conditions: Table 1; geometric mean
Experimental: as §1

Compound | Geometric Mean MIC values, E. coli isogenic strains, nmpA [1] [µg/mL] | Geometric Mean MIC values, E. coli isogenic strains, aac(6′)-Ib [2] [µg/mL] | Geometric Mean MIC values, E. coli isogenic strains, aph(3′)-Ia [3] [µg/mL] | Geometric Mean MIC values, E. coli efflux parent (E. coli efflux parent; Table 2) [µg/mL] | Geometric Mean MIC values, E. coli isogenic strains, ant(4′)-Ia [4] [µg/mL] | Geometric Mean MIC values, E. coli isogenic strains, armA [5] [µg/mL] | Geometric Mean MIC values, E. coli ATCC 25922 (E. coli ATCC 25922; Table 2) [µg/mL] | Geometric Mean MIC values, E. coli Δefflux ([6]; Table 2) [µg/mL] | Geometric Mean MIC values, E. coli isogenic strains, aph(3′)-II [7] [µg/mL] | Geometric Mean MIC values, E. coli isogenic strains, empty vector [8] [µg/mL] | also measured
NC[C@@H]1CC[C@@H](N)[C@@H](O[C@@H]2[C@@H](N)[C@H](O)[C@@H](N)[C@H](O)[C@H]2O[C@@H]2O[C@H](CO)[C@@H](O[C@H]3O[C@@H](CN)[C@@H](O)[C@H](O)[C@H]3N)[C@H]2O)O1 [drawing 888] |  |  |  |  |  |  |  |  |  |  | MIC [1]: > 64 µg/mL; MIC [2]: 16 µg/mL (≈ 26.7 µM); MIC [3]: > 64 µg/mL; MIC (E. coli efflux parent): 0.5 µg/mL (≈ 0.835 µM); MIC ([4]; Escherichia coli, read-out: Geometric Mean MIC values, E. coli isogenic strains ant(4′)-Ia): 0.5 µg/mL (≈ 0.835 µM); MIC [5]: 4 µg/mL (≈ 6.68 µM); MIC (E. coli ATCC 25922): 1 µg/mL (≈ 1.67 µM); Geometric Mean MIC values, E. coli Δefflux ([6]; E. coli Δefflux): 0.5 µg/mL; MIC [7]: 0.5 µg/mL (≈ 0.835 µM); MIC [8]: 0.5 µg/mL (≈ 0.835 µM)
CCC(N)C1CCC(N)C(OC2C(N)CC(N)C(O)C2OC2OC(CO)C(OC3OC(CN)C(O)C(O)C3N)C2O)O1 (stereo not shown) [drawing 861] | >64 | 1 | >64 | 2 | 0.5 | 5.7 | 1.4 | 1 | 0.5 | 1 | 
NCC1OC(OC2C(CO)OC(OC3C(O)C(N)CC(N)C3OC3OC(CN)C(O)C(F)(F)C3N)C2O)C(N)C(O)C1O (stereo not shown) [drawing 870] | >64 | >64 | >64 | 4 | 8 | 32 | 5 | 2 | 4 | 4 | 
NCC1OC(OC2C(CO)OC(OC3C(O)C(N)CC(N)C3OC3OC(CN)C(O)C(F)C3N)C2O)C(N)C(O)C1O (stereo not shown) [drawing 866] | >64 | 8 | >64 | 1.4 | 8 | 1.4 | 1.3 | 0.71 | 1 | 0.63 | 
CO[C@@H]1[C@@H](O[C@@H]2O[C@H](CO)[C@@H](O[C@H]3O[C@@H](CN)[C@@H](O)[C@H](O)[C@H]3N)[C@H]2O)[C@H](O[C@H]2O[C@H](CN)CC[C@H]2N)[C@@H](N)C[C@H]1N [drawing 889] |  |  |  |  |  |  |  |  |  |  | MIC [1]: > 32 µg/mL; MIC [2]: 8 µg/mL (≈ 13.4 µM); MIC [3]: 16 µg/mL (≈ 26.8 µM); MIC (E. coli efflux parent): 0.5 µg/mL (≈ 0.838 µM); MIC [5]: 0.5 µg/mL (≈ 0.838 µM); MIC (E. coli ATCC 25922): 1 µg/mL (≈ 1.68 µM); Geometric Mean MIC values, E. coli Δefflux ([6]; E. coli Δefflux): 0.5 µg/mL; MIC [7]: 0.5 µg/mL (≈ 0.838 µM); MIC [8]: 0.5 µg/mL (≈ 0.838 µM)
NC[C@@H]1O[C@H](O[C@H]2[C@@H](O)[C@H](O[C@@H]3[C@@H](O)[C@H](N)C[C@H](N)[C@H]3O[C@H]3O[C@H](CN)[C@@H](O)[C@H](O)[C@H]3N)O[C@@H]2CO)[C@H](N)[C@@H](O)[C@@H]1O [NEO, neomycin B, reference compound] | 80 | 1.6 | >64 | 0.76 | 2.2 | 0.75 | 1 | 0.79 | 18 | 0.64 | 
CC(N)C1CCC(N)C(OC2C(N)CC(N)C(O)C2OC2OC(CO)C(OC3OC(CN)C(O)C(O)C3N)C2O)O1 (stereo not shown) [drawing 857] | >64 | 1 | 64 | 1 | 0.71 | 1.5 | 1.4 | 0.84 | 0.71 | 0.84 | 
NCC1OC(OC2C(CO)OC(OC3C(O)C(N)CC(N)C3OC3OC(CN)C(O)C(F)C3N)C2O)C(N)C(O)C1O (stereo not shown) [drawing 869] | >64 | 4 | >64 | 1 | 1 | 4 | 1 | 1 | 1 | 1 | 
CC(N)C1CCC(N)C(OC2C(N)CC(N)C(O)C2OC2OC(CO)C(OC3OC(CN)C(O)C(O)C3N)C2O)O1 (stereo not shown) [drawing 858] | >64 | 1 | >64 | 1 | 0.5 | 1.4 | 2 | 1 | 1 | 1 | 
NCC1OC(OC2C(CO)OC(OC3C(O)C(N)CC(N)C3OC3OC(C4(N)CC4)CCC3N)C2O)C(N)C(O)C1O (stereo not shown) [drawing 859] | 32 | 1 | >32 | 1 |  | 4 | 1 | 1 | 1 | 0.5 | 
NCC1OC(OC2C(CO)OC(OC3C(O)C(N)CC(N)C3OC3OC(CN)C(O)C(F)C3N)C2O)C(N)C(O)C1O (stereo not shown) [drawing 868] | >64 | >64 | >64 | 8 | 32 | 64 | 16 | 4 | 8 | 16 | 
CCC(N)C1CCC(N)C(OC2C(N)CC(N)C(O)C2OC2OC(CO)C(OC3OC(CN)C(O)C(O)C3N)C2O)O1 (stereo not shown) [drawing 852] |  |  |  |  |  |  |  |  |  |  | Geometric Mean MIC values, E. coli efflux parent (E. coli efflux parent; Table 1): 2 µg/mL; IC50 (translation): 26 nM; Geometric Mean MIC values, P. aeruginosa Δefflux [9]: 0.5 µg/mL; Geometric Mean MIC values, P. aeruginosa ATCC 27853 (P. aeruginosa ATCC 27853): 1 µg/mL; Geometric Mean MIC values, P. aeruginosa efflux parent [10]: 2 µg/mL; Geometric Mean MIC values, E. coli ATCC 25922 (E. coli ATCC 25922; Table 1): 1 µg/mL; Geometric Mean MIC values, E. coli Δefflux ([6]; Table 1): 1 µg/mL
